We go through 3 compounds from ChEMBL document CHEMBL1201862, “PubChem BioAssay data set” (2004).

Calls of active or inactive are those of the source. Bounds are passed on as bounds.

In assay [1] the target is Transitional endoplasmic reticulum ATPase (Homo sapiens, UniProt P55072). The assay can be described thus: p97 ATPase inhibitors, dose response, biochemical (AID 1534).
Assay [2] has as its target Ras and Rab interactor 1/Tyrosine-protein kinase ABL1 (Homo sapiens, UniProt P00519+Q13671). Description: biochemical. It is filed as functional.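 Further: biochemical TR-FRET dose-response test measuring inhibition of binding between Rin1 and Abl proteins.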
In assay [3] the target is T1, Tyrosyl-DNA phosphodiesterase 2 (Homo sapiens, UniProt O95551).
T1 sequence (O95551 whole entry): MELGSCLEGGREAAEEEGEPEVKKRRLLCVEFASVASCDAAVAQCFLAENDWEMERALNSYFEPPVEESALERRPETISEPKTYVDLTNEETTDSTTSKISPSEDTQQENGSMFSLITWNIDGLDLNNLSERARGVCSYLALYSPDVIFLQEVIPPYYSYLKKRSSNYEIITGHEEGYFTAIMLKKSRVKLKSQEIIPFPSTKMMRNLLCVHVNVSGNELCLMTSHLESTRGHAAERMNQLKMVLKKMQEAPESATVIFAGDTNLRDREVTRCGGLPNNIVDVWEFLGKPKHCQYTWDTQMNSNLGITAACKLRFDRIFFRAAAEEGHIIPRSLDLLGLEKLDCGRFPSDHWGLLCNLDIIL
Description: potency against TDP2 phosphodiesterase activity – biochemical, epi absorbance, IC50, dose response (AID 743297).

Assay [4] addresses T2, Nucleotide-binding oligomerization domain-containing protein 1 (Homo sapiens, UniProt Q9Y239).
T2 sequence (Q9Y239 whole entry): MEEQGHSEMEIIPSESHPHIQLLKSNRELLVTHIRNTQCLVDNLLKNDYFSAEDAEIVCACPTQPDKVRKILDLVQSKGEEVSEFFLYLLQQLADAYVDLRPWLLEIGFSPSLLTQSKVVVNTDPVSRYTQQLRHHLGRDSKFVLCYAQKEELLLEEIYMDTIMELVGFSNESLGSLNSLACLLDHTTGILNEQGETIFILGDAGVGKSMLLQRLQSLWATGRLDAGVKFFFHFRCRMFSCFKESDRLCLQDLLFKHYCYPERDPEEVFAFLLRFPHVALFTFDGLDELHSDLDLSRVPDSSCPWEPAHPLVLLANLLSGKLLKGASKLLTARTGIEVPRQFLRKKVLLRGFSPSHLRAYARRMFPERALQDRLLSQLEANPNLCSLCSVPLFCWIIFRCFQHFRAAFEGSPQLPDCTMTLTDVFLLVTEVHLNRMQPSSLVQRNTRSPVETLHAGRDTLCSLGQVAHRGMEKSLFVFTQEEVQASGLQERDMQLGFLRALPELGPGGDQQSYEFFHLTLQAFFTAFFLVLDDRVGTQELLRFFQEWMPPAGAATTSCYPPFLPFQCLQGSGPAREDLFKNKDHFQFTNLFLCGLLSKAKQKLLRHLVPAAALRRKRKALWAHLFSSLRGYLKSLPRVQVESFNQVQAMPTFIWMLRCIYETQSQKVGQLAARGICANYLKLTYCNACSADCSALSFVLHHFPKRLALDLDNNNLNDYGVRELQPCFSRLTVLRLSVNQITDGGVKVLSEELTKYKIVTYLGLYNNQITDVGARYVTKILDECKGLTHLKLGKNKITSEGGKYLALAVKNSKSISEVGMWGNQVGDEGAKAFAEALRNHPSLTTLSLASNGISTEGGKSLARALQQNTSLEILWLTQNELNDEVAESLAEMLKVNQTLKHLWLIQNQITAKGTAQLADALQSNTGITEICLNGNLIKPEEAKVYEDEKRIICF
The assay can be described thus: SAR analysis of NF-kappaB dependent luciferase using DAP as an inducer - Set 2. [Related pubchem assays (depositor defined):AID1566, AID1575, AID1578, AID1579, AID1849, AID1852, AID2264]. It is filed as functional.

Assay [5] concerns the target T3, Interleukin-8 (Homo sapiens, UniProt P10145).
T3 sequence (P10145 whole entry): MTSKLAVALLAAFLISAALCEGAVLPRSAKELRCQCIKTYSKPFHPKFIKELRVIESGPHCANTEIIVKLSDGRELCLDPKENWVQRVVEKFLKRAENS
The assay can be described thus: SAR analysis of Tumor necrosis factor alpha (TNF-alpha) induced IL-8 secretion in MCF-7/NOD1 cells - Set 2. [Related pubchem assays (depositor defined):AID1575, AID2250, AID2260]. It is filed as functional, cell-based.

In assay [6] the target is T3, Interleukin-8. Description: SAR analysis of GM-Tri-DAP induced IL-8 secretion in MCF-7/NOD1 cells - Set 2. [Related pubchem assays (depositor defined):AID1575, AID1578, AID2333]. It is filed as functional, cell-based.
The target of assay [7] is Nucleotide-binding oligomerization domain-containing protein 2 (Homo sapiens, UniProt Q9HC29). Description: inhibition of NOD2 signaling – set 2, SAR follow-up (AID 2475). It is filed as functional.
In assay [8] the target is Glucose-6-phosphate 1-dehydrogenase (Homo sapiens, UniProt P11413). The assay can be described thus: inhibition of Homo sapiens G6PD, dose series – biochemical, fluorescence, selectivity assay for P. falciparum G6PD inhibitor project, dose response (AID 504792). It is filed as functional.
The subject of assay [9] is HEK293. Description: SAR analysis of compounds that are cytotoxic to HEK293 - Set 2. [Related pubchem assays (depositor defined):AID1575, AID1578, AID1849, AID2001, AID2333, AID2334, AID2335, AID2337, AID2800]. It is filed as functional, cell-based. Conditions: Homo sapiens.
Assay [10] deals with T2, Nucleotide-binding oligomerization domain-containing protein 1. Description: SAR analysis of compounds that inhibit NOD1 - Set 2. [Related pubchem assays (depositor defined):AID1566, AID1575, AID1578, AID1849, AID1852, AID2333, AID2335, AID2798]. It is filed as functional.
Assay [11] in a line: cells. It counts as functional.
Assay [12] concerns INS1. The assay can be described thus: INS-1E survival protection against cytokine death – cell-based, luminescence, retest, dose response (AID 449756).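 Further: cell death triggered by IL-1 beta plus TNF-alpha plus IFN-gamma mixture; protective hits raise ATP signal compared with cytokine alone wells.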 It counts as functional. Conditions: Rattus norvegicus.
The nature of assay [13]: reduction of Shn3 3'UTR-driven luciferase in osteoblasts – cell-based, Clone20 osteoblasts, firefly luciferase, cherry-picked, dose response (AID 624132).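 Further: firefly luciferase luminescence from reporter carrying the Shn3 3'UTR in osteoblasts.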 It counts as functional.
The nature of assay [14]: loss of viability in HepG2 cells – cell-based, CellTiter-Glo, cherry-picked, cytotoxicity control for Shn3 inhibitor project, dose response (AID 624134). It counts as functional. In general terms: ATP-based viability assays read luminescence as a measure of living cells.
Assay [15] is described as follows: viability loss in HEK293T cells – cell-based, cherry-picks, cytotoxicity control for HIV Vif inhibitor project, dose response (AID 652208). It is filed as functional.
Assay [16] deals with Paired box protein Pax-8 (Homo sapiens, UniProt Q06710). Description: PAX8 transcriptional activity inhibition in RMG-I – RMG-I cells, luciferase, cherry-pick, dose response (AID 687027).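 Further: luciferase reporter driven by Pax8 target thyroperoxidase promoter measured by SteadyGlo luminescence.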 It counts as functional, cell-based.
Paired box protein Pax-8, sequence (Q06710 whole entry): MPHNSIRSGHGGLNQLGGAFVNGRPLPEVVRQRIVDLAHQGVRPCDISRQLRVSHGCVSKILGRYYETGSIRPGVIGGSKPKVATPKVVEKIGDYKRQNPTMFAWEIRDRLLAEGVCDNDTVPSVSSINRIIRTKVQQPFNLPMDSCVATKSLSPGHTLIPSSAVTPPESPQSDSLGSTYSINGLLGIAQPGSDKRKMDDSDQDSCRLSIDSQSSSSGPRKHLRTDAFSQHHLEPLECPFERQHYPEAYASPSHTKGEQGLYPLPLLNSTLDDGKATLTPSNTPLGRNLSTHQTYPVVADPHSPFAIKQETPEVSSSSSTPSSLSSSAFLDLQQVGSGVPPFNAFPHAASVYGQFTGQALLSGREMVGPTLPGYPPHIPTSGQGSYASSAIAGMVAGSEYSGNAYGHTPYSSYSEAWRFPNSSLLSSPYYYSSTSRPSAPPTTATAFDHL

Transitional endoplasmic reticulum ATPase, sequence (P55072 whole entry): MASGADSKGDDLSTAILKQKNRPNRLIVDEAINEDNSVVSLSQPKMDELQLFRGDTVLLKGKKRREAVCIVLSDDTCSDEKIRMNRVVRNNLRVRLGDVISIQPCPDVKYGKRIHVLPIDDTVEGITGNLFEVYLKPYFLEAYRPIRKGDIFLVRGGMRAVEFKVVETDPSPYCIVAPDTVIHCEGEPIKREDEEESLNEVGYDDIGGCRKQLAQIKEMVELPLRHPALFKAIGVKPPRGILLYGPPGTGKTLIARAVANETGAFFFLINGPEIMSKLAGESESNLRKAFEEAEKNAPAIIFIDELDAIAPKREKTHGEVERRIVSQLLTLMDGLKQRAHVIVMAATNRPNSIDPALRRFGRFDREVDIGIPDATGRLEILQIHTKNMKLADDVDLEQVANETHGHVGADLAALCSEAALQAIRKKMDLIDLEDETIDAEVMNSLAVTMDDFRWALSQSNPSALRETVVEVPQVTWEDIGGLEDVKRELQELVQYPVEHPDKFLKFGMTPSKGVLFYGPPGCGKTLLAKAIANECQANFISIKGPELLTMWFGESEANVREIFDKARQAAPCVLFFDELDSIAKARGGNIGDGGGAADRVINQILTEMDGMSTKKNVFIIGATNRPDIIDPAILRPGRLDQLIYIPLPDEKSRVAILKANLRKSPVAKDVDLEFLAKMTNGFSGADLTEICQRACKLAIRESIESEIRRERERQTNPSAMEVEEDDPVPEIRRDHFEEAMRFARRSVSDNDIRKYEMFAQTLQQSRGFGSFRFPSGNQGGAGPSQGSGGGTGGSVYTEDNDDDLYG
Ras and Rab interactor 1/Tyrosine-protein kinase ABL1, sequence (P00519 whole entry): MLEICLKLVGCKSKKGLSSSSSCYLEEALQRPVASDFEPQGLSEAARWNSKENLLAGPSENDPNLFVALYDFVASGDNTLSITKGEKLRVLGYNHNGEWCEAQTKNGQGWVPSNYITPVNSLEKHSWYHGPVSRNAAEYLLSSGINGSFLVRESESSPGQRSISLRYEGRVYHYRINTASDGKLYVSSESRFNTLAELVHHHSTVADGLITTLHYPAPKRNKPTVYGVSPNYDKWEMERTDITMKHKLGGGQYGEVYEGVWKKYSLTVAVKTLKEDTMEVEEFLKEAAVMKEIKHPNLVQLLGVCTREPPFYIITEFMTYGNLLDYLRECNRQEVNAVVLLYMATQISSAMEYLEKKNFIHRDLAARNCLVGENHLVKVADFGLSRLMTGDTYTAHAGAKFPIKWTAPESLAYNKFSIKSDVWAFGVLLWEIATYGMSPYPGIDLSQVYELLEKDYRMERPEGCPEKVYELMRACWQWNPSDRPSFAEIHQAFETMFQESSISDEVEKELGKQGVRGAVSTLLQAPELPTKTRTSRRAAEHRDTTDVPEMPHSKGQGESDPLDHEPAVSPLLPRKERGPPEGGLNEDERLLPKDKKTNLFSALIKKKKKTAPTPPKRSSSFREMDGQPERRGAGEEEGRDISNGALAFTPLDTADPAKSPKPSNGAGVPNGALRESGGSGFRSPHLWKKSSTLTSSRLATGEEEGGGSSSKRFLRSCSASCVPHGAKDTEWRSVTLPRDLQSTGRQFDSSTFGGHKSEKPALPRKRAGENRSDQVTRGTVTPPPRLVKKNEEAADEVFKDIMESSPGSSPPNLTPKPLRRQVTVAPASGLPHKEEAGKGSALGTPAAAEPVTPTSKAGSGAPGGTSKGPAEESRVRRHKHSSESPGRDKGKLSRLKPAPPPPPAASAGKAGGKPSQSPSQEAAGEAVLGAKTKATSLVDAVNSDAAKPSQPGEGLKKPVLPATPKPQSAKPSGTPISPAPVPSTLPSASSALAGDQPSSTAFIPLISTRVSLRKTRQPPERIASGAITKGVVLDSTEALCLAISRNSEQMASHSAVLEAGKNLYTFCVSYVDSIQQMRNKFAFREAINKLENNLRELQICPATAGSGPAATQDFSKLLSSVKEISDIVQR
Ras and Rab interactor 1/Tyrosine-protein kinase ABL1, sequence (Q13671 whole entry): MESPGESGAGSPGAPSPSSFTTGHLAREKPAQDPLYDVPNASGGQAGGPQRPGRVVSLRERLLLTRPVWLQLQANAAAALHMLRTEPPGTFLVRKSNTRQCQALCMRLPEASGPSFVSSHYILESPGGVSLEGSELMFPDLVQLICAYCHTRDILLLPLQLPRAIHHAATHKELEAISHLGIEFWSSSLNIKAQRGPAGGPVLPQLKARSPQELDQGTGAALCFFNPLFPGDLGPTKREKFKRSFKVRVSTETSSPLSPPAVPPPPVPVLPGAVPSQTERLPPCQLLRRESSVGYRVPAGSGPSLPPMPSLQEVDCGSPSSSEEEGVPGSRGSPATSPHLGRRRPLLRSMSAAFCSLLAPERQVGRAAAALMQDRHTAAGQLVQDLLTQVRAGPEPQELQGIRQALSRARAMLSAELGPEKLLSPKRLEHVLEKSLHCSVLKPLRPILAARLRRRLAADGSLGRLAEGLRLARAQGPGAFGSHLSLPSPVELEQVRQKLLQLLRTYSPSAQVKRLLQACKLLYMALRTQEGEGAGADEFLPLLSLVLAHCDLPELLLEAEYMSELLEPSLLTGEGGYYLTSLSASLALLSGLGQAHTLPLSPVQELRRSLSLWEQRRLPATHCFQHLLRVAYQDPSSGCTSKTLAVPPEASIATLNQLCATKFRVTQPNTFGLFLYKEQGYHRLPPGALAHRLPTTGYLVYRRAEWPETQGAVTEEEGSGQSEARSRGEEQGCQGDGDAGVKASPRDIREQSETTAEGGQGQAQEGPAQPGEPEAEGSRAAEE
Nucleotide-binding oligomerization domain-containing protein 2, sequence (Q9HC29 whole entry, the tested form may be a part): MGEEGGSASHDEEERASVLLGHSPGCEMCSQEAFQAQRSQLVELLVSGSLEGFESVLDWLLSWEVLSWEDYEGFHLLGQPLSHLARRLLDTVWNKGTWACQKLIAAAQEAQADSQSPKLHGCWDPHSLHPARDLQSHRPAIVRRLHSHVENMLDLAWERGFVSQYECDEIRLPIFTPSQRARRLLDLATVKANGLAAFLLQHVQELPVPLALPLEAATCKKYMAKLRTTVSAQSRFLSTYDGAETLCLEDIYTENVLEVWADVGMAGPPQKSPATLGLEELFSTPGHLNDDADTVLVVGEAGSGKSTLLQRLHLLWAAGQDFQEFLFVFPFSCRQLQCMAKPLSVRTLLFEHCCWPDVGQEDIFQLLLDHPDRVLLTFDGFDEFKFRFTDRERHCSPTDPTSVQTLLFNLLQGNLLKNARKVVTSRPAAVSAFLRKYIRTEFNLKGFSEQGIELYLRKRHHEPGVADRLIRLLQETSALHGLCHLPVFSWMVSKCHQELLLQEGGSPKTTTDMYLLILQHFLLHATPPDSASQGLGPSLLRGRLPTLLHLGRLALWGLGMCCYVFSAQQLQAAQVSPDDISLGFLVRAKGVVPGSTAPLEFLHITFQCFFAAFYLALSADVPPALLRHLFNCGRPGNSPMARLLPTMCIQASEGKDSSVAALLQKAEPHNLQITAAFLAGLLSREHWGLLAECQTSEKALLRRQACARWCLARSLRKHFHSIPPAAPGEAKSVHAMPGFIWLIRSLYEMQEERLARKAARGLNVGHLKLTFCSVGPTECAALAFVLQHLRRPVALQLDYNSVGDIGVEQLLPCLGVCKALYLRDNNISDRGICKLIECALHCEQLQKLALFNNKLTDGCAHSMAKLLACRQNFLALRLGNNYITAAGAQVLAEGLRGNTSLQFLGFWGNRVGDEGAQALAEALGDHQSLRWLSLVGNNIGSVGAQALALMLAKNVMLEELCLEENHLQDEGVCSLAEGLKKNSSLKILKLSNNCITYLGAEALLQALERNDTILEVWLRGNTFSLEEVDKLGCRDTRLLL
Glucose-6-phosphate 1-dehydrogenase, sequence (P11413 whole entry): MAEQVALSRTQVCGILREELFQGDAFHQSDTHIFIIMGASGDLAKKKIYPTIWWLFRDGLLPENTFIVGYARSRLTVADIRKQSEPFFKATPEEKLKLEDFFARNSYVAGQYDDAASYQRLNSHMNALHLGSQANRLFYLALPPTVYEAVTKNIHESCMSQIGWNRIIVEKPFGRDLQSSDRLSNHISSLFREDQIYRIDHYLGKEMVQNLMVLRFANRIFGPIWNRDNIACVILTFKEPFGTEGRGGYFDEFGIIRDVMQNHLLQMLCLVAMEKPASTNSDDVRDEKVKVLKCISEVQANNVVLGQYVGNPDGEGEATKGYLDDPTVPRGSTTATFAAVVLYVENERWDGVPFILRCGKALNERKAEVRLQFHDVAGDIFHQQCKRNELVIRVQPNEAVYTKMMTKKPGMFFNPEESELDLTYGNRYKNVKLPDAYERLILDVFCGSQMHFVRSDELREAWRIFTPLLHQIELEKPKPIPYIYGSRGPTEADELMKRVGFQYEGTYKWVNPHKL

`O=C(NC1(O)C(=O)c2ccccc2C1=O)c1c(Cl)cccc1Cl`: the figures for the IC50 in assay [1], in assay [2] and in assay [3] were > 50 µM (not active), 21 µM (inactive) and 4.2 µM (active), respectively.
Turning to `O=C(NC1(O)C(=O)c2ccccc2C1=O)c1ccc(C(F)(F)F)cc1`, in assay [3], the concentration for half-maximal inhibition (IC50) (in general, the midpoint of a concentration-inhibition curve) is 3.85 µM (active).
Take `Cn1c(=O)[nH]c(=O)c2c1nc([N+](=O)[O-])n2Cc1ccccc1`: the IC50 in [4] was > 25 µM (inactive); in assay [5] it was 3.5 µM (active); in assay [6], 2.16 µM (active); in [7], 0.748 µM (active); in assay [8], 47.9 µM (inactive); in assay [9] it was 13.7 µM (active). Besides, the IC50 in [10] is 0.785 µM (active); in assay [11] it was 4.75 µM (active). Further, the concentration at half-maximal activity (AC50) – broadly, the concentration giving half of the maximal activity seen – is 7.36 µM (active) in [12]; 1.9 µM (active) in assay [13]; 18.3 µM (active) in [14]; 4.52 µM (active) in [15]; 3.81 µM (active) in [16].
